The results in this text go back to patent publication US9839629B2, “Inhibitors of the renal outer medullary potassium channel” (Merck Sharp & Dohme Corp., priority 2013, dated 2017).

Broadly, the IC50 is the concentration that gives 50% inhibition. Low readings indicate inhibition by little substance, high ones a need for much substance.

For this experiment, the target named is T1, ROMK (Kir1.1) channel (Homo sapiens, UniProt P48048).
T1 sequence (P48048 1-391): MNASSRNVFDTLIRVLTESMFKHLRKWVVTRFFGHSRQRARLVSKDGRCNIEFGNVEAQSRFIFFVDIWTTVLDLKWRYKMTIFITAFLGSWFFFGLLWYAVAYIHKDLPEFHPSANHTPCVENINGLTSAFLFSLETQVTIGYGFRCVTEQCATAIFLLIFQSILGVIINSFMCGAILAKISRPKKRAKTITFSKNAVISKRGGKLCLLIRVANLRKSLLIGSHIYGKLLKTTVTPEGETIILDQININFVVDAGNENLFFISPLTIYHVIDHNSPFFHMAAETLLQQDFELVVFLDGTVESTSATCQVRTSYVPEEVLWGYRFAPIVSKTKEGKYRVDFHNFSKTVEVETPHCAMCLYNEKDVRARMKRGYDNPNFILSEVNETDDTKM
The experiment can be described thus: Thallium Flux Assay. It counts as cell-based. In a few lines:
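Thallium flux assay as described in WO 2013/062900. Compounds supplied as HCl salts were tested in salt form.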
Take `CC1=C(N2CCC3(CCN(C[C@H](O)c4cncc(-n5cnnn5)c4)CC3)CC2)COC1=O` [Example 63, (R)-4-(9-(2-(5-(1H-tetrazol-1-yl)pyridin-3-yl)-2-hydroxyethyl)-3,9-diazaspiro[5.5]undecan-3-yl)-3-methylfuran-2(5H)-one]: the concentration for half-maximal inhibition (IC50) came to 196 nM. As for `O=C1C=C(N2CCC3(CCN(C[C@H](O)c4ccc(-n5cnnn5)nc4)CC3)CC2)CO1` [Example 18, (R)-4-(9-(2-(6-(1H-tetrazol-1-yl)pyridin-3-yl)-2-hydroxyethyl)-3,9-diazaspiro[5.5]undecan-3-yl)furan-2(5H)-one], the figure is 16 nM; as for `CC1=C(N2CCC3(CCN(C[C@@H](O)c4cncc(-n5cnnn5)c4)CC3)CC2)COC1=O` [Example 64, (S)-4-(9-(2-(5-(1H-tetrazol-1-yl)pyridin-3-yl)-2-hydroxyethyl)-3,9-diazaspiro[5.5]undecan-3-yl)-3-methylfuran-2(5H)-one], 117 nM. In turn, `O=C1C=C(N2CCC3(CCN(C(=O)Cc4ccc(-n5cnnn5)nc4)CC3)CC2)CO1` [Example 99, 4-(9-(2-(6-(1H-tetrazol-1-yl)pyridin-3-yl)acetyl)-3,9-diazaspiro[5.5]undecan-3-yl)furan-2(5H)-one] came in with an IC50 of 109 nM. Under `Cc1nc(-n2cnnn2)ccc1[C@H](O)CN1CCC2(CC1)CCN(C1=CC(=O)CC1)CC2` [Example 71, (S)-3-(9-(2-hydroxy-2-(2-methyl-6-(1H-tetrazol-1-yl)pyridin-3-yl)ethyl)-3,9-diazaspiro[5.5]undecan-3-yl)cyclopent-2-enone] stands 243 nM. As for `CC1=C(N2CCC3(CCN(C[C@H](O)c4ccc(-n5cnnn5)cn4)CC3)CC2)COC1=O` [Example 51, (S)-4-(9-(2-(5-(1H-tetrazol-1-yl)pyridin-2-yl)-2-hydroxyethyl)-3,9-diazaspiro[5.5]undecan-3-yl)-3-methylfuran-2(5H)-one], the figure is 70 nM.

With `CC1=C(N2CCC3(CC2)CCN([C@@H](CO)c2ccc(-n4cnnn4)cc2C)CC3)COC1=O` [Example 58, (R)-4-(9-(2-hydroxy-1-(2-methyl-4-(1H-tetrazol-1-yl)phenyl)ethyl)-3,9-diazaspiro[5.5]undecan-3-yl)-3-methylfuran-2(5H)-one], the half-inhibitory concentration (IC50) was 256 nM. Against the preceding compound, the IC50 is about 3.7-fold higher. `CC1=C(N2CCC3(CCN(C[C@H](O)c4ccc5c(c4C)COC5=O)CC3)CC2=O)COC1=O` [Example 28, (R)-9-(2-hydroxy-2-(4-methyl-1-oxo-1,3-dihydroisobenzofuran-5-yl)ethyl)-3-(4-methyl-5-oxo-2,5-dihydrofuran-3-yl)-3,9-diazaspiro[5.5]undecan-2-one] showed an IC50 of 552 nM. In turn, `O=C1C=C(N2CCC3(CCN(C[C@@H](O)c4ccc(-n5cnnn5)nn4)CC3)CC2)CO1` [Example 17, (R)-4-(9-(2-(6-(1H-tetrazol-1-yl)pyridazin-3-yl)-2-hydroxyethyl)-3,9-diazaspiro[5.5]undecan-3-yl)furan-2(5H)-one] gave an IC50 of 91 nM. The compound `CC1=C(N2CCC3(CCN(C[C@H](O)c4ccc(-n5cnnn5)cc4C)CC3)CC2)COC1=O` [Example 55, (R)-4-(9-(2-hydroxy-2-(2-methyl-4-(1H-tetrazol-1-yl)phenyl)ethyl)-3,9-diazaspiro[5.5]undecan-3-yl)-3-methylfuran-2(5H)-one] showed an IC50 of 11 nM.

As for `Cc1c([C@@H](O)CN2CCC3(CC2)CCN(C2=CC(=O)OC2)C(C)C3)ccc2c1COC2=O` (single isomer, unassigned) [Example 33], half-maximal inhibition (IC50) required 42 nM. Under `CC1=C(N2CCC3(CCN(C[C@H](O)c4ccc5c(c4C)COC5=O)CC3)[C@H](F)C2)COC1=O` [Example 35, 5-((R)-2-((S)-7-fluoro-9-(4-methyl-5-oxo-2,5-dihydrofuran-3-yl)-3,9-diazaspiro[5.5]undecan-3-yl)-1-hydroxyethyl)-4-methylisobenzofuran-1(3H)-one] stands 236 nM. `CC1=C(N2CCC3(CCN(C[C@H](O)c4cccc(-n5cnnn5)n4)CC3)CC2)COC1=O` [Example 6A, (S)-4-(9-(2-(6-(1H-tetrazol-1-yl)pyridin-2-yl)-2-hydroxyethyl)-3,9-diazaspiro[5.5]undecan-3-yl)-3-methylfuran-2(5H)-one] registered an IC50 of 22 nM.

Regarding `Cc1c(N2CCC3(CCN(C[C@H](O)c4ccc(-n5cnnn5)nn4)CC3)CC2)c(=O)c1=O` [Example 83, (S)-3-(9-(2-(6-(1H-tetrazol-1-yl)pyridazin-3-yl)-2-hydroxyethyl)-3,9-diazaspiro[5.5]undecan-3-yl)-4-methylcyclobut-3-ene-1,2-dione], 317 nM corresponded to half-maximal inhibition (IC50). This IC50 lies about 14-fold higher than the previous one. Under `O=C1C=C(N2CCC3(CCN(C[C@H](O)c4ccc(-n5cnnn5)cc4F)CC3)CC2)CO1` [Example 22, (R)-4-(9-(2-(2-fluoro-4-(1H-tetrazol-1-yl)phenyl)-2-hydroxyethyl)-3,9-diazaspiro[5.5]undecan-3-yl)furan-2(5H)-one] stands 17 nM. For the compound `CC1=C(N2CCC3(CCN(C[C@H](O)c4ccc(-n5cnnn5)nc4C)CC3)CC2)COC1=O` [Example 45, (R)-4-(9-(2-hydroxy-2-(2-methyl-6-(1H-tetrazol-1-yl)pyridin-3-yl)ethyl)-3,9-diazaspiro[5.5]undecan-3-yl)-3-methylfuran-2(5H)-one], the 50% inhibitory concentration (IC50) is 16 nM. Under `CC1=C(N2CCC3(CCN(C[C@H](O)c4ccnc(-n5cnnn5)c4)CC3)CC2)COC1=O` [Example 61, (R)-4-(9-(2-(2-(1H-tetrazol-1-yl)pyridin-4-yl)-2-hydroxyethyl)-3,9-diazaspiro[5.5]undecan-3-yl)-3-methylfuran-2(5H)-one] stands 33 nM; under `Cc1c([C@@H](O)CN2CCC3(CC2)CCN(C2=CC(=O)OCC2)CC3)ccc2c1COC2=O` [Example 93, 5-{(1R)-1-hydroxy-2-[9-(6-oxo-3,6-dihydro-2H-pyran-4-yl)-3,9-diazaspiro[5.5]undec-3-yl]ethyl}-4-methyl-2-benzofuran-1(3H)-one], 146 nM. As for `Cc1c(N2CCC3(CCN(C[C@@H](O)c4ccc(-n5cnnn5)nn4)CC3)CC2)c(=O)c1=O` [Example 84, (R)-3-(9-(2-(6-(1H-tetrazol-1-yl)pyridazin-3-yl)-2-hydroxyethyl)-3,9-diazaspiro[5.5]undecan-3-yl)-4-methylcyclobut-3-ene-1,2-dione], the figure is 765 nM; as for `Cc1c(N2CCC3(CCN(C[C@H](O)c4ccc5c(ccc6nnnn65)c4)CC3)CC2)c(=O)c1=O` [Example 88, (R)-3-(9-(2-hydroxy-2-(tetrazolo[1,5-a]quinolin-7-yl)ethyl)-3,9-diazaspiro[5.5]undecan-3-yl)-4-methylcyclobut-3-ene-1,2-dione], 223 nM; as for `CC1=C(N2CCC3(CCN(C[C@H](O)c4cncc(-n5cnnn5)n4)CC3)CC2)COC1=O` [Example 65, (S)-4-(9-(2-(6-(1H-tetrazol-1-yl)pyrazin-2-yl)-2-hydroxyethyl)-3,9-diazaspiro[5.5]undecan-3-yl)-3-methylfuran-2(5H)-one], 109 nM.

`Cc1c([C@@H](O)CN2CCC3(CC2)CCN(C2=C(F)C(=O)OC2)CC3)ccc2c1COC2=O` [Example 38, (R)-5-(2-(9-(4-fluoro-5-oxo-2,5-dihydrofuran-3-yl)-3,9-diazaspiro[5.5]undecan-3-yl)-1-hydroxyethyl)-4-methylisobenzofuran-1(3H)-one] showed an IC50 of 7 nM. Under `C[C@@H]1Cc2cc(C(O)CN3CCC4(CC3)CCN(C3=CC(=O)OC3)CC4)ccc2C(=O)O1` (stereo partly drawn) [Example 10, (3R)-6-(1-hydroxy-2-(9-(5-oxo-2,5-dihydrofuran-3-yl)-3,9-diazaspiro[5.5]undecan-3-yl)ethyl)-3-methylisochroman-1-one] stands 596 nM; under `Cc1nc(-n2cnnn2)ccc1[C@H](O)CN1CCC2(CC1)CCN(C1=CC(=O)OC1)CC2` [Example 14, (S)-4-(9-(2-hydroxy-2-(2-methyl-6-(1H-tetrazol-1-yl)pyridin-3-yl)ethyl)-3,9-diazaspiro[5.5]undecan-3-yl)furan-2(5H)-one], 24 nM. `Cc1c([C@@H](O)CN2CCC3(CC2)CCN(C2=CC(=O)CC2)CC3)ccc2c1COC2=O` [Example 72, (R)-5-(1-hydroxy-2-(9-(3-oxocyclopent-1-en-1-yl)-3,9-diazaspiro[5.5]undecan-3-yl)ethyl)-4-methylisobenzofuran-1(3H)-one] had an IC50 of 439 nM. Under `COc1cc(C#N)ncc1[C@@H](O)CN1CCC2(CC1)CCN(C1=CC(=O)OC1)CC2` [Example 9, (R)-5-(1-hydroxy-2-(9-(5-oxo-2,5-dihydrofuran-3-yl)-3,9-diazaspiro[5.5]undecan-3-yl)ethyl)-4-methoxypicolinonitrile] stands 220 nM.

In the case of `COCO[C@H]1CN(C2=C(C)C(=O)OC2)CCC12CCN(C[C@H](O)c1ccc3c(c1C)COC3=O)CC2` [Example 95, 5-{(1R)-1-hydroxy-2-[(7R)-7-(methoxymethoxy)-9-(4-methyl-5-oxo-2,5-dihydrofuran-3-yl)-3,9-diazaspiro[5.5]undec-3-yl]ethyl}-4-methyl-2-benzofuran-1(3H)-one], 114 nM corresponded to half-maximal inhibition (IC50). This IC50 is about 1.9-fold lower than that of the compound before.

In the case of `O=C1C=C(N2CCC3(CCN(C[C@H](O)c4ccc(-n5cnnn5)nc4)CC3)OC2=O)CO1` [Example 30, (R)-9-(2-(6-(1H-tetrazol-1-yl)pyridin-3-yl)-2-hydroxyethyl)-3-(5-oxo-2,5-dihydrofuran-3-yl)-1-oxa-3,9-diazaspiro[5.5]undecan-2-one], the IC50 is 171 nM.

Regarding `CC1=C(N2CCC3(CCN(C[C@H](O)c4cccc(-n5cnnn5)c4)CC3)CC2)COC1=O` [Example 59, (R)-4-(9-(2-(3-(1H-tetrazol-1-yl)phenyl)-2-hydroxyethyl)-3,9-diazaspiro[5.5]undecan-3-yl)-3-methylfuran-2(5H)-one], the IC50 is 22 nM.
